# Measured values as given in patent US20250082931A1, “Treating Gastric Cancer Using TTFields Combined with XELOX, FOLFOX or the Individual Constituents Thereof” (Novocure GmbH, priority 2019, published 2025).
# Legend:
# [1] = system: KATO III cells; test: Overall effect (cytotoxic effect x clonogenic effect); details: 72 h
# Description: (§1) After 6-14 days the colonies were fixed, stained and counted to determine clonogenic effect. The overall effect was calculated by multiplying the cytotoxic effect and the clonogenic effect.
# (§2) Overall effect: Each colony number was multiply in the percent of cytotoxic effect of its dish and averages and standard deviations of each treatment were calculated in Excel software. […] Significant was determine by 2-way ANOVA followed Multiple comparison using GraphPed software.
# [2] = system: AGS cells; test: Cytotoxic effect by cell count after 72 h, with and without TTFields
# Description: (§3) During the treatment the media of all dishes was replaced every 24 h (“hours”).
# (§4) After 72 h of treatment the media and the cells were collected, and cytotoxicity was determined by cell counts.
# (§5) Cells were seeded on inovitro dishes and petri dishes 24 h before starting the experiments. Media containing the indicated concentration of each chemotherapy component alone or FOLFOX and control media was added to the cells and the dishes were connected to TTFields (as in SOP-BI-009) or grown in 37° C., 5% CO2 for 72 h. Each treatment included 8 repeats (8 dishes). The media was replaced every 24 h. At the end of the experiment the cells were collected, and cytotoxicity was determined by cell counts, small number of cells were seeded for colonies and the cells (including cells from the media) were stained for Annexin V and 7AAD for apoptosis analysis.
# (§6) A TTFields generator (Inovitro systems) was used to apply the treatment to the cells.
# (§7) Cytotoxic effect: Average and standard deviation of cell number of at least 5 dishes from each treatment was calculated in Excel software. The averages from these repeats was calculated to averages and standard error and is presented as percent from control (no drug treatment) in XY graph of points with error bars using GraphPed software. Significant was determine by 2-way ANOVA followed Multiple comparison using GraphPed software.
# [3] = system: AGS cells; test: Apoptosis analysis by Annexin V / 7AAD staining; assay type: cell-based; details: for AnnV+ 7AAD+ cell fraction / AnnV+ 7AAD− cell fraction / AnnV− 7AAD+ cell fraction / AnnV− 7AAD− cell fraction: 72 h
# Description: After 72 h of treatment the media and the cells were collected, and cytotoxicity was determined by cell counts. Cells (including cells from the media) were stained for Annexin V and 7AAD for apoptosis analysis. For the testing of the clonogenic effect, cells were seeded for colonies.
# as §5
# Apoptotic effect: Average of cell fraction of each marker staining (Annexin V and 7AAD) of at least 5 dishes from each treatment was calculated in Excel software. The averages from these repeats was calculated to averages and is presented in stacked bar graph using GraphPed software.
# [4] = system: AGS cells
# Description: as §3, §4, §5, §6, §7
# [5] = system: KATO III cells
# [6] = system: AGS cells; test: Overall effect (cytotoxic effect x clonogenic effect); assay type: cell-based; details: for overall effect (colonies count multiplying the cytotoxic effect): 72 h
# Description: as §1, §2
# [7] = 0.5 uM, + TTFields 150 kHz 1.0 V/cm
# [8] = 1.5 uM, + TTFields 150 kHz 1.0 V/cm
# [9] = 4.5 uM, + TTFields 150 kHz 1.0 V/cm
# [10] = 13.5 uM, + TTFields 150 kHz 1.0 V/cm
# [11] = 40 uM, + TTFields 150 kHz 1.0 V/cm
# [12] = FOLFOX experiment, 0.5 uM, + TTFields 150 kHz 1.0 V/cm
# [13] = FOLFOX experiment, 0.5 uM, no TTFields
smiles,measurement,setting,value
"O=c1[nH]cc(F)c(=O)[nH]1 [5-FU, 5-fluorouracil]",overall effect (colonies count multiplying the cytotoxic effect),"[1]; 1.5 uM, no TTFields",58 % from control
same,overall effect (colonies count multiplying the cytotoxic effect),"[1]; 4.5 uM, + TTFields 150 kHz 1.6 V/cm",18 % from control
same,overall effect (colonies count multiplying the cytotoxic effect),"[1]; 4.5 uM, no TTFields",34 % from control
same,overall effect (colonies count multiplying the cytotoxic effect),"[1]; 13.5 uM, + TTFields 150 kHz 1.6 V/cm",3 % from control
same,overall effect (colonies count multiplying the cytotoxic effect),"[1]; 13.5 uM, no TTFields",4 % from control
same,overall effect (colonies count multiplying the cytotoxic effect),"[1]; 40 uM, + TTFields 150 kHz 1.6 V/cm",0 % from control
same,overall effect (colonies count multiplying the cytotoxic effect),"[1]; 40 uM, no TTFields",0 % from control
same,cell count,[2]; [7],61 % from control
same,cell count,"[2]; 0.5 uM, no TTFields",90 % from control
same,cell count,[2]; [8],47 % from control
same,cell count,"[2]; 1.5 uM, no TTFields",83 % from control
same,cell count,[2]; [9],27 % from control
same,cell count,"[2]; 4.5 uM, no TTFields",52 % from control
same,cell count,[2]; [10],15 % from control
same,cell count,"[2]; 13.5 uM, no TTFields",24 % from control
same,cell count,[2]; [11],19 % from control
same,cell count,"[2]; 40 uM, no TTFields",25 % from control
same,cell count,[2]; [12],61 % from control
same,cell count,[2]; [13],79 % from control
same,"elevation in percent of cells that undergo apoptosis, drug + TTFields compared to drug alone",[3],higher
same,AnnV+ 7AAD+ cell fraction,[3]; [7],8.00%
same,AnnV+ 7AAD− cell fraction,[3]; [7],6.38%
same,AnnV− 7AAD+ cell fraction,[3]; [7],1.03%
same,AnnV− 7AAD− cell fraction,[3]; [7],84.58%
same,AnnV+ 7AAD+ cell fraction,"[3]; 0.5 uM, no TTFields",5.33%
same,AnnV+ 7AAD− cell fraction,"[3]; 0.5 uM, no TTFields",4.48%
same,AnnV− 7AAD+ cell fraction,"[3]; 0.5 uM, no TTFields",1.40%
same,AnnV− 7AAD− cell fraction,"[3]; 0.5 uM, no TTFields",88.78%
same,AnnV+ 7AAD+ cell fraction,[3]; [8],9.05%
same,AnnV+ 7AAD− cell fraction,[3]; [8],5.90%
same,AnnV− 7AAD+ cell fraction,[3]; [8],1.28%
same,AnnV− 7AAD− cell fraction,[3]; [8],83.80%
same,AnnV+ 7AAD+ cell fraction,"[3]; 1.5 uM, no TTFields",5.48%
same,AnnV+ 7AAD− cell fraction,"[3]; 1.5 uM, no TTFields",5.03%
same,AnnV− 7AAD+ cell fraction,"[3]; 1.5 uM, no TTFields",1.23%
same,AnnV− 7AAD− cell fraction,"[3]; 1.5 uM, no TTFields",88.25%
same,AnnV+ 7AAD+ cell fraction,[3]; [9],12.35%
same,AnnV+ 7AAD− cell fraction,[3]; [9],6.78%
same,AnnV− 7AAD+ cell fraction,[3]; [9],2.48%
same,AnnV− 7AAD− cell fraction,[3]; [9],78.43%
same,AnnV+ 7AAD+ cell fraction,"[3]; 4.5 uM, no TTFields",6.40%
same,AnnV+ 7AAD− cell fraction,"[3]; 4.5 uM, no TTFields",5.08%
same,AnnV− 7AAD+ cell fraction,"[3]; 4.5 uM, no TTFields",1.25%
same,AnnV− 7AAD− cell fraction,"[3]; 4.5 uM, no TTFields",87.28%
same,AnnV+ 7AAD+ cell fraction,[3]; [10],14.45%
same,AnnV+ 7AAD− cell fraction,[3]; [10],8.70%
same,AnnV− 7AAD+ cell fraction,[3]; [10],2.63%
same,AnnV− 7AAD− cell fraction,[3]; [10],74.20%
same,AnnV+ 7AAD+ cell fraction,"[3]; 13.5 uM, no TTFields",8.45%
same,AnnV+ 7AAD− cell fraction,"[3]; 13.5 uM, no TTFields",6.20%
same,AnnV− 7AAD+ cell fraction,"[3]; 13.5 uM, no TTFields",0.90%
same,AnnV− 7AAD− cell fraction,"[3]; 13.5 uM, no TTFields",84.45%
same,AnnV+ 7AAD+ cell fraction,[3]; [12],10.3%
same,AnnV+ 7AAD− cell fraction,[3]; [12],7.3%
same,AnnV− 7AAD+ cell fraction,[3]; [12],1.7%
same,AnnV− 7AAD− cell fraction,[3]; [12],80.8%
same,AnnV+ 7AAD+ cell fraction,[3]; [13],4.3%
same,AnnV+ 7AAD− cell fraction,[3]; [13],4.8%
same,AnnV− 7AAD+ cell fraction,[3]; [13],1.8%
same,AnnV− 7AAD− cell fraction,[3]; [13],89.1%
same,cytotoxic effect of drug + TTFields compared to drug alone,[4],significantly higher
same,cytotoxic effect of drug + TTFields compared to drug alone,[5],significantly higher
same,interaction with TTFields based on the overall effect,[6],synergistic
same,overall effect (colonies count multiplying the cytotoxic effect),[6]; [7],36 % from control
same,overall effect (colonies count multiplying the cytotoxic effect),"[6]; 0.5 uM, no TTFields",97 % from control
same,overall effect (colonies count multiplying the cytotoxic effect),[6]; [8],30 % from control
same,overall effect (colonies count multiplying the cytotoxic effect),"[6]; 1.5 uM, no TTFields",81 % from control
same,overall effect (colonies count multiplying the cytotoxic effect),[6]; [9],11 % from control
same,overall effect (colonies count multiplying the cytotoxic effect),"[6]; 4.5 uM, no TTFields",50 % from control
same,overall effect (colonies count multiplying the cytotoxic effect),[6]; [10],2 % from control
same,overall effect (colonies count multiplying the cytotoxic effect),"[6]; 13.5 uM, no TTFields",2 % from control
same,overall effect (colonies count multiplying the cytotoxic effect),[6]; [11],0 % from control
same,overall effect (colonies count multiplying the cytotoxic effect),"[6]; 40 uM, no TTFields",0 % from control
same,overall effect (colonies count multiplying the cytotoxic effect),[6]; [12],36 % from control
same,overall effect (colonies count multiplying the cytotoxic effect),[6]; [13],87 % from control
